The subject of the test is DIO mice (C57Bl/6 J male mice). Put plainly: Liver lipid content, 36 days assay in DIO mice (colorimetric kits). The format is in vivo. As to conditions: 50 mg/kg orally twice daily, after 36 days, vs saline control. The procedure:
To assess the performance of the compounds disclosed in decreasing hepatic lipid content, DIO mice (C57Bl/6 J male mice) were treated with a hydrochloride salt of compound 4a; and with compound 7a during 36 days, versus a control of DIO mice treated with saline (0.9% NaCl) and versus DIO mice treated with Metformin as a positive control.
For the assessment, 60 C57Bl/6 J male mice (16-week-old at delivery and 40 g of average weight), obtained from Charles River France, were put on high fat diet for 10 weeks. The animals were housed in ventilated and enriched housing cages (310×125×127 mm^3) throughout the experimental phase. Animals' cages litters were changed at least once a week. Mice were housed in groups of 10 mice on a normal 12 hours light cycle (at 08:00 pm lights were switched off), at 22±2° C. and 50±10% relative humidity. After reception, mice were maintained for three additional acclimation weeks. During the whole assessment (acclimation+treatment phase) a high fat diet (D12492 purchased from Research Diet Inc; 60% fat) and tap water were provided ad libitum.
After the acclimation period, mice were fasted for 6 hours and blood glucose and plasma insulin were measured. Ten animals, those with lower blood glucose/plasma insulin, were discarded from the study. Then, the others were randomized into 5 homogenous groups (n=10 mice per group) according to their blood glucose/plasma insulin levels (HOMA-IR) and body weight. Mice were treated orally twice daily for 36 days with either saline solution (control group), SJT test compound (4a, 7a; 50 mg/kg) or metformin (150 mg/kg).
Finally, mice were sacrificed, and liver was collected, weighted and stored at −80° C. for additional analysis. Liver samples were dissected for liver lipids assay. Liver lipids were assayed using colorimetric commercial assay kits, from liver samples homogenate after lipid solubilization in deoxycholate as described by Miao et al., J Lipid Res, 2004, 45, 1410-17. Samples were homogenized with an ultrasound probe with 500 μl distilled water during few seconds. Then cholic acid at 1% is added to make lipids soluble. The measurement of the different lipids was then performed using colorimetric kits from Sobioda, France.

The structures appear in SMILES notation.

For the molecule `COc1ccc(-c2nc(C(=O)NCCN)cc3c2[nH]c2ccccc23)cc1` [Compound 4a, N(-ethylamine)-1-benzosubstituted-β-carboline-3-carboxamide], the hepatic cholesterol result was “lower lipid levels than untreated control animals”, the hepatic fatty acids result was “lower lipid levels than untreated control animals” and the hepatic triglycerides entry is on record as “lower lipid levels than untreated control animals”.

The values above are taken from US10857136B2, “Compounds for use in the prevention and/or treatment of non-alcoholic fat liver disease and non-alcoholic steatohepatitis” (SJT MOLECULAR RESEARCH, SL, priority 2017, dated 2020).
